Patent publication US12404261B2, “Compounds and compositions for treating conditions associated with cGAS” (Novartis AG, priority 2020, dated 2025)

Molecular target: human truncated cGAS enzyme (147-522 human cGAS) (Homo sapiens (Human), UniProt Q8N884)
Assay: Quantification of cGAS protein inhibition (cGAMP formation measured by LC-MS/MS)
Type: biochemical
Conditions: reported for the potential mixture of co-existing tautomers and/or racemates
Protocol: A reagent buffer was prepared in filtered and autoclaved water according to the following: • 50 mM Tris-buffer pH 7.5 (1 M Tris-buffer pH 7.5, Invitrogen, Cat. No. 15567-027); • 50 mM NaCl (5 M NaCl, Sodium Chloride Solution, Sigma, 59222C-); • 5 mM MgCl2 (1 M MgCl2, Sigma, M1028); • 0.1 mM ZnCl2 (Zinc Chloride [7646-85-7], powder, Cell Culture Tested, Sigma, Z-0152); and • 0.001% Tween 20 (TWEEN 20, Sigma Aldrich, P1379-).
A buffer for the cGAS enzyme was prepared in filtered and autoclaved water according to the following: • 50 mM Tris-buffer pH 7.5; • 5 mM MgCl2; and • 0.001% Tween 20.
Compounds were dispensed to a […]. The human truncated cGAS enzyme (4.2 mg/mL 147-522 human cGAS, MW 43,909 g/mol) was stored in 50 mM Tris, 500 mM NaCl, 5% (v/v) glycerol at pH 8 and diluted in the cGAS buffer enzyme shortly before use. The enzyme solution was transferred into the reagent buffer to give a final concentration of 30 nM. The reaction was started by mixing the enzyme with ISD (a 45 bp double stranded DNA, MW 27,670 g/mol, 5 mM), GTP and ATP to a final concentration of 5 μM, 0.5 mM and 0.5 mM respectively in a final volume of 10 μl. The reaction plates were then centrifuged at 1000 rpm for 1 minute and incubated at room temperature for 1 h. After 1 h of incubation, [^5Ns]-2′3′-cGAMP to a final concentration of 200 nM and 30 μL of 100% acetonitrile/0.175% of TFA were added to the reaction mixture. The plates were centrifuged at 1000 rpm for 1 minute before being sealed for 3 seconds at 170° C. using a ThermoScientific sealer (ALPS™ 50V) and an aluminum sealing cover (Pierce Seal, 4titude, Product Code: 4TI-0531).
The concentration of cGAMP was measured on a LC-MS/MS system consisting of a THERMO Dionex Ultimate LC system with a high pressure pump, an autosampler, a column heating compartment (Reinach, Switzerland) and a SCIEX Triple Quad 5500 (Framingham, MA, USA) mass spectrometer for detection. The sample plates were centrifuged for 10 minutes at 2000 rpm. Up to three plates were placed in the autosampler for injection. An aliquot of 10 μL of each sample was injected on an XBridge BEH Amide 3.5 μm, 2.1×50 mm column (P/N 186004859) with an XBridge BEH Amide 5 μm 2.1×5 mm VanGuard Cartridge (P/N 186007760) pre-column (both WATERS, MA, USA) held at 40° C. An isocratic flow of 1.0 mL/min solvent (60% ACN, 8 mM ammonium acetate, 5 mM ammonium hydroxide, 0.04% acetic acid) was applied and sprayed into the ion source of the mass spectrometers. The MS parameters were optimized based on the properties of the compounds to be detected and run in positive multi-reaction mode (MRM) based on the mass transitions. LC and MS parameters were also optimized to allow for a sample-to-sample measuring time of approximately 75 sec and a run time of 8 hours per 384-well plate. All data were analyzed with Excel; and the dose response curves were generated using the auto fitting function of XLfit. The IC50 was determined by plotting the cGAMP concentration ratio (cGAMP divided by the internal standard [^15Ns]-2′3′-cGAMP) versus the concentration of compound.

Sequence of human truncated cGAS enzyme (147-522 human cGAS) (Q8N884 147-522): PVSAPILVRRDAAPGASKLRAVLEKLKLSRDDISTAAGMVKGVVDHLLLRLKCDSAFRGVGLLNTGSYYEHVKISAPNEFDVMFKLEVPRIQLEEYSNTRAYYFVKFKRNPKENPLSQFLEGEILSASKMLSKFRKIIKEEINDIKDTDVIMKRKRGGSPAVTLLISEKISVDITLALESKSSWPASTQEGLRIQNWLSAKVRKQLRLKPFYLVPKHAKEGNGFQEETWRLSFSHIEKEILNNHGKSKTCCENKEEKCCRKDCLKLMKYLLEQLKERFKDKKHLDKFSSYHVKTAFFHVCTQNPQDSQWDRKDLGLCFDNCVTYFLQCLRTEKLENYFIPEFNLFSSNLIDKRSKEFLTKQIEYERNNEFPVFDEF

Row | IC50 [nM] | SMILES
1 | 75 | CCOC(=O)c1nnc(-c2[nH]c3cc(Cl)c(OC)cc3c2-c2cn[nH]c2)[nH]1 [Example 28, ethyl 5-(6-chloro-5-methoxy-3-(1H-pyrazol-4-yl)-1H-indol-2-yl)-4H-1,2,4-triazole-3-carboxylate]
2 | 218 | COC(=O)Cc1nnc(-c2[nH]c3c(Cl)c(Cl)ccc3c2-c2cn[nH]c2)[nH]1 [Example 29, methyl 2-(5-(6,7-dichloro-3-(1H-pyrazol-4-yl)-1H-indol-2-yl)-4H-1,2,4-triazol-3-yl)acetate]
3 | 49 | COc1cc2c(-c3cn[nH]c3)c(-c3nnc(C(N)=O)[nH]3)[nH]c2cc1Cl [Example 31, 5-(6-chloro-5-methoxy-3-(1H-pyrazol-4-yl)-1H-indol-2-yl)-4H-1,2,4-triazole-3-carboxamide]
4 | 496 | FC(F)(F)c1nnc(-c2cc3c(Cl)c(Cl)ccc3n2-c2cn[nH]c2)[nH]1 [Example 32, 4,5-dichloro-1-(1H-pyrazol-4-yl)-2-(5-(trifluoromethyl)-4H-1,2,4-triazol-3-yl)-1H-indole]
5 | 38 | Oc1cc2c(-c3cn[nH]c3)c(-c3nnc(C(F)(F)F)[nH]3)[nH]c2cc1Cl [Example 33, 6-Chloro-3-(1H-pyrazol-4-yl)-2-(5-(trifluoromethyl)-4H-1,2,4-triazol-3-yl)-1H-indol-5-ol]
6 | 954 | Oc1c(Cl)ccc2c(-c3cn[nH]c3)c(-c3nnc(C(F)(F)F)[nH]3)[nH]c12 [Example 34, 6-chloro-3-(1H-pyrazol-4-yl)-2-(5-(trifluoromethyl)-4H-1,2,4-triazol-3-yl)-1H-indol-7-ol]
7 | 77 | N#Cc1nnc(-c2[nH]c3c(Cl)c(Cl)ccc3c2-c2cn[nH]c2)[nH]1 [Example 35, 5-(6,7-Dichloro-3-(1H-pyrazol-4-yl)-1H-indol-2-yl)-4H-1,2,4-triazole-3-carbonitrile]
8 | 342 | OCc1nnc(-c2[nH]c3c(Cl)c(Cl)ccc3c2-c2cn[nH]c2)[nH]1 [Example 36, (5-(6,7-Dichloro-3-(1H-pyrazol-4-yl)-1H-indol-2-yl)-4H-1,2,4-triazol-3-yl)methanol]
9 | 137 | OCCn1cnc(-c2[nH]c3c(Cl)c(Cl)ccc3c2-c2cn[nH]c2)n1 [Example 37, 2-(3-(6,7-dichloro-3-(1H-pyrazol-4-yl)-1H-indol-2-yl)-1H-1,2,4-triazol-1-yl)ethan-1-ol]
10 | 136 | Clc1ccc2c(-c3cn[nH]c3)c(-c3nnc[nH]3)[nH]c2c1Cl [Example 38, 6,7-dichloro-3-(1H-pyrazol-4-yl)-2-(4H-1,2,4-triazol-3-yl)-1H-indole]
11 | 48 | COc1cc2c(-n3ccnc3)c(-c3nnc(C(=O)N(C)C)[nH]3)n(C)c2c(F)c1Cl [Example 39, 5-(6-chloro-7-fluoro-3-(1H-imidazol-1-yl)-5-methoxy-1-methyl-1H-indol-2-yl)-N,N-dimethyl-4H-1,2,4-triazole-3-carboxamide]
12 | 82 | COCCN(C)C(=O)c1nnc(-c2c(-n3ccnc3)c3cc(OC)c(Cl)c(F)c3n2C)[nH]1 [Example 40, 5-(6-chloro-7-fluoro-3-(1H-imidazol-1-yl)-5-methoxy-1-methyl-1H-indol-2-yl)-N-(2-methoxyethyl)-N-methyl-4H-1,2,4-triazole-3-carboxamide]
13 | 61 | COc1cc2c(-n3ccnc3)c(-c3nnc(C(=O)N(C)CCO)[nH]3)n(C)c2c(F)c1Cl [Example 41, 5-(6-chloro-7-fluoro-3-(1H-imidazol-1-yl)-5-methoxy-1-methyl-1H-indol-2-yl)-N-(2-hydroxyethyl)-N-methyl-4H-1,2,4-triazole-3-carboxamide]
14 | 63 | COc1cc2c(-n3ccnc3)c(-c3nnc(C(=O)N4CCOCC4)[nH]3)n(C)c2c(F)c1Cl [Example 42, (5-(6-chloro-7-fluoro-3-(1H-imidazol-1-yl)-5-methoxy-1-methyl-1H-indol-2-yl)-4H-1,2,4-triazol-3-yl)(morpholino)methanone]
15 | 61 | COc1cc2c(-n3ccnc3)c(-c3nnc(C(=O)N4CCC(O)C4)[nH]3)n(C)c2c(F)c1Cl (centres unmarked) [Example 43, (5-(6-chloro-7-fluoro-3-(1H-imidazol-1-yl)-5-methoxy-1-methyl-1H-indol-2-yl)-4H-1,2,4-triazol-3-yl)(3-hydroxypyrrolidin-1-yl)methanone]
16 | 58 | COc1cc2c(-n3ccnc3)c(-c3nnc(C(=O)N4CCC(O)CC4)[nH]3)n(C)c2c(F)c1Cl [Example 44, (5-(6-chloro-7-fluoro-3-(1H-imidazol-1-yl)-5-methoxy-1-methyl-1H-indol-2-yl)-4H-1,2,4-triazol-3-yl)(4-hydroxypiperidin-1-yl)methanone]
17 | 56 | COc1cc2c(-n3ccnc3)c(-c3nnc(C(=O)N4CCCC(O)C4)[nH]3)n(C)c2c(F)c1Cl (centres unmarked) [Example 45, (5-(6-chloro-7-fluoro-3-(1H-imidazol-1-yl)-5-methoxy-1-methyl-1H-indol-2-yl)-4H-1,2,4-triazol-3-yl)(3-hydroxypiperidin-1-yl)methanone]
18 | 138 | COc1cc2c(-n3ccnc3)c(-c3nnc(C(=O)N4CCN(C)CC4)[nH]3)n(C)c2c(F)c1Cl [Example 46, (5-(6-chloro-7-fluoro-3-(1H-imidazol-1-yl)-5-methoxy-1-methyl-1H-indol-2-yl)-4H-1,2,4-triazol-3-yl)(4-methylpiperazin-1-yl)methanone]
19 | 121 | COc1cc2c(-n3ccnc3)c(-c3nnc(C(F)(F)F)[nH]3)n(C)c2c(F)c1Cl [Example 47, 6-chloro-7-fluoro-3-(1H-imidazol-1-yl)-5-methoxy-1-methyl-2-(5-(trifluoromethyl)-4H-1,2,4-triazol-3-yl)-1H-indole]
20 | 66 | COc1cc2c(-n3ccnc3)c(-c3nnc(C(F)(F)F)[nH]3)[nH]c2c(F)c1Cl [Example 48, 6-chloro-7-fluoro-3-(1H-imidazol-1-yl)-5-methoxy-2-(5-(trifluoromethyl)-4H-1,2,4-triazol-3-yl)-1H-indole]
21 | 107 | COCc1nnc(-c2c(-n3ccnc3)c3cc(OC)c(Cl)c(F)c3n2C)[nH]1 [Example 49, 6-chloro-7-fluoro-3-(1H-imidazol-1-yl)-5-methoxy-2-(5-(methoxymethyl)-4H-1,2,4-triazol-3-yl)-1-methyl-1H-indole]
22 | 57 | COc1cc2c(-n3ccnc3)c(-c3nnc(CSC)[nH]3)n(C)c2c(F)c1Cl [Example 50, 6-Chloro-7-fluoro-3-(1H-imidazol-1-yl)-5-methoxy-1-methyl-2-(5-((methylthio)methyl)-4H-1,2,4-triazol-3-yl)-1H-indole]
23 | 169 | COc1cc2c(-n3ccnc3)c(-c3nnc(CCO)[nH]3)n(C)c2c(F)c1Cl [Example 51, 2-(5-(6-chloro-7-fluoro-3-(1H-imidazol-1-yl)-5-methoxy-1-methyl-1H-indol-2-yl)-4H-1,2,4-triazol-3-yl)ethan-1-ol]
24 | 206 | COCCc1nnc(-c2c(-n3ccnc3)c3cc(OC)c(Cl)c(F)c3n2C)[nH]1 [Example 52, 6-chloro-7-fluoro-3-(1H-imidazol-1-yl)-5-methoxy-2-(5-(2-methoxyethyl)-4H-1,2,4-triazol-3-yl)-1-methyl-1H-indole]
25 | 66 | COCC(O)c1nnc(-c2c(-n3ccnc3)c3cc(OC)c(Cl)c(C#N)c3n2C)[nH]1 (centres unmarked) [Example 53, 6-chloro-2-(5-(1-hydroxy-2-methoxyethyl)-4H-1,2,4-triazol-3-yl)-3-(1H-imidazol-1-yl)-5-methoxy-1-methyl-1H-indole-7-carbonitrile]
26 | 76 | COCc1nnc(-c2c(-n3ccnc3)c3cc(OC)c(Cl)c(C#N)c3n2C)[nH]1 [Example 54, 6-chloro-3-(1H-imidazol-1-yl)-5-methoxy-2-(5-(methoxymethyl)-4H-1,2,4-triazol-3-yl)-1-methyl-1H-indole-7-carbonitrile]
